Consider one compound from patent publication US20230100173A1, “A TOPICAL COMPOSITION COMPRISING AN EXTRACT OF COMBINED HERBS […] ARILLUS FOR TLSP INHIBITION AND THE TREATMENT OR A[…] SKIN INFLAMMATORY DISEASE AND THE USE THEREOF” (ME[…]., LTD, priority 2020, published 2023).

The subject of experiment [1] is mast cells infiltrated into inflamed lesion. In kind it is in vivo, mouse. To be noted: DNFB BALB/C mice, 16th day, toluidine blue; topical WIN-1001X 10 mg/ml, DEX 200 μM; acetone+DIW = 1, DNFB+DIW 3.18.
Experimental: (§8) Ltd.) was spread at every third day starting from at 7th day to 16th day to induce skin inflammation. […] Additionally, the histological analysis on skin tissue of test animal has been performed. Specifically, the dorsal skin tissue occurring dermatitis was fixed on 4% (w/v) paraformaldehyde solution ([MUT], Sigma-Aldrich) in shaker maintaining 4° C. (CR300, […] ) at 16th day after the sample treatment and 12 hours after the fixation, the dehydrated and transparent tissue was embedded in paraffin, sliced (5 μm of width) to make tissue slices.
Experiment [2] deals with skin epidermal layer. It is filed as in vivo, mouse. The settings on record: DNFB BALB/C mice, 16th day, H&E; topical WIN-1001X 10 mg/ml, DEX 200 μM; acetone+DIW = 1, DNFB+DIW 7.06.
Experimental: as §8
Experiment [3] relates to IL-1β. As to the kind of experiment: Inhibition of TNF alpha-induced IL-1β expression in HaCaT cells (RT-PCR). The settings on record: TNFα 50 ng/ml, extract 1 μg/ml, Dex 200 nM, mean. It is filed as cell-based, human. The procedure: (§1) In order to determine the anti-inflammatory activity of inventive extract, following inhibition test of cytokine expression using HaCaT cell was performed according to the procedure disclosed in the literature (Jeong et al., 2019, J. Invest. Dermatol., May; 139 (5): pp 1098-1109).
(§2) HaCaT cell (human epithelial keratinocyte cell, 300493, CLS) was inoculated into DMEM medium containing 10% Fetal bovine serum, 100 units/m1 of penicillin, 100n/m1 of streptomycin (D6429, Sigma-Aldrich Co. Ltd) and was incubated in the incubator (HERA cell 150i, Thermo Fisher Scientific Co. Ltd.) maintaining optimum humidity (85-95%) and 5% CO2 atmosphere.
(§3) For performing gene expression test, the incubated cells were transferred to 12 wells and 50 ng/ml of TNF alpha (RC214-12, Biobasic Co. Ltd) was treated therewith for 1 hour to induce inflammatory response.
(§4) 1 hour after inducing the inflammation, 1 μg/ml of inventive extract prepared in Examples was treated with identical medium and subjected to incubation for 1 hour. After the incubation, RNA (FATRR-001, Favorgen) was extracted from the cell and cDNA was synthesized from the RNA using by cDNA synthesis kit (RRO36A, TAKARA). […]

The test system of experiment [4] is IL-4. As to the kind of experiment: IL-4 expression in dorsal skin of DNFB mice (RT-PCR). The settings on record: 16th day, WIN-1001X 10 mg/ml, DEX 200 μM, DNFB+DIW 11.4. In kind it is in vivo, mouse. How it is done: (§5) 100 μL of 0.15% (w/v) DNFB (2,4-dinitrofluorobenzene, D1529, Sigma-Aldrich Co. Ltd.) was spread on […] of 6 weeks-old BALB/C female mouse (DBL Co., Ltd. Incheon, Korea) and after removing the central dorsal hair, 100 μL of 0.15% (w/v) DNFB (2,4-dinitrofluorobenzene, D1529, Sigma-Aldrich Co. Ltd.) was spread at every third day starting from at 7th day to 16th day to induce skin inflammation.
(§6) In order to determine the anti-inflammatory activity of inventive extract, following inhibition test of cytokine expression using test animal was performed according to the procedure disclosed in the literature (Li et al., Drug. Des. Devel. Ther., 2016, Feb. 19; 10:781-191).
(§7) At 16th day after the treatment of DNFB, RNA (FATRR-001, Favorgan) was extracted from the dorsal skin of mice prepared in Experimental Example 2 and cDNA was synthesized from the RNA using by cDNA synthesis kit (RRO36A, TAKARA). The polymerization reaction was performed using by the synthesized cDNA and Sybrgreen kit (RT500M, Enzynomics) and then Real-time-PCR was performed using by primers for various cytokines involved in skin inflammation (GADPH, TSLP, GM-CSF, IL-4, IL-10, IL-13, IL-31 and IL-33) as disclosed in Table 7.

The subject of experiment [5] is TSLP. As to the kind of experiment: Inhibition of TNF alpha-induced TSLP expression in HaCaT cells (RT-PCR). It is filed as cell-based, human. To be noted: TNFα 50 ng/ml, extract 1 μg/ml, Dex 200 nM, mean. The procedure: as §1, §2, §3, §4
Experiment [6] deals with DNFB-induced skin dermatitis, BALB/C female mouse. As to the kind of experiment: DNFB-induced atopic dermatitis in BALB/C mice, skin dermatitis severity score. It is filed as in vivo. To be noted: 16th day, topical WIN-1001X 10 mg/ml, DEX 200 μM, DNFB+DIW 8.8. How it is done:
To confirm the inhibitory effect of inventive extract on the atopic dermatitis, the animal model test using by mice, was performed according to the method disclosed in the reference (Li et al., Drug. Des. Devel. Ther., 2016, Feb. 19; 10:781-191).
as §5
For the purpose of comparing with test group, the identical test excepting using acetone instead of DNFB and DIW instead of test sample with the above procedure was performed.

Experiment [7] concerns IL-10. As to the kind of experiment: IL-10 expression in dorsal skin of DNFB mice (RT-PCR). In kind it is in vivo, mouse. The settings on record: 16th day, WIN-1001X 10 mg/ml, DEX 200 μM, DNFB+DIW 19.3. How it is done: as §5, §6, §7
The test system of experiment [8] is TSLP. The experiment can be described thus: TSLP expression in dorsal skin of DNFB mice (RT-PCR). To be noted: 16th day, WIN-1001X 10 mg/ml, DEX 200 μM, DNFB+DIW 7.51. It is filed as in vivo, mouse. The procedure: as §5
In order to determine the anti-inflammatory activity of inventive extract, following inhibition test of TSLP cytokine expression using test animal was performed according to the procedure disclosed in the literature (Li et al., Drug. Des. Devel. Ther., 2016, Feb. 19; 10:781-191).
At 16th day after the treatment of DNFB, RNA (FATRR-001, Favorgan) was extracted from the dorsal skin of mice prepared in Experimental Example 2 and cDNA was synthesized from the RNA using by cDNA synthesis kit (RRO36A, TAKARA). The polymerization reaction was performed using by the synthesized cDNA and Sybrgreen kit (RT500M, Enzynomics) and then Real-time-PCR was performed using by primers for TSLP cytokines involved in skin inflammation as disclosed in Table 7.

The test system of experiment [9] is IL-33. The experiment can be described thus: IL-33 expression in dorsal skin of DNFB mice (RT-PCR). It is filed as in vivo, mouse. The settings on record: 16th day, WIN-1001X 10 mg/ml, DEX 200 μM, DNFB+DIW 9.47. How it is done: as §5, §6, §7
Experiment [10] concerns IL-22. The experiment can be described thus: IL-22 expression in dorsal skin of DNFB mice (RT-PCR). The settings on record: 16th day, WIN-1001X 10 mg/ml, DEX 200 μM, DNFB+DIW 29.2. It is filed as in vivo, mouse.
Experiment [11] relates to IL-31. As to the kind of experiment: IL-31 expression in dorsal skin of DNFB mice (RT-PCR). In kind it is in vivo, mouse. To be noted: 16th day, WIN-1001X 10 mg/ml, DEX 200 μM, DNFB+DIW 3.93. How it is done: as §5, §6, §7
Experiment [12] concerns IL-13. As to the kind of experiment: IL-13 expression in dorsal skin of DNFB mice (RT-PCR). It is filed as in vivo, mouse. To be noted: 16th day, WIN-1001X 10 mg/ml, DEX 200 μM, DNFB+DIW 48.6. The procedure:
as §5, §6, §7

Structures are written as SMILES.

For the compound `C[C@@H]1C[C@H]2[C@@H]3CCC4=CC(=O)C=C[C@]4(C)[C@@]3(F)[C@@H](O)C[C@]2(C)[C@@]1(O)C(=O)CO` [DEX, Dexamethasone], the “relative number of mast cells” value in experiment [1] is on record as 0.8548 fold. For the same compound, the “relative area of epidermis” value in experiment [2] was determined as 1.638 fold. In experiment [3], the “IL-1β expression (RT-PCR, relative to untreated = 1)” value was 1.081. In experiment [4], the “IL-4 expression (RT-PCR, relative to acetone+DIW = 1)” value is given as 4.798. For the same compound, the “TSLP expression (RT-PCR, relative to untreated = 1)” value in experiment [5] is on record as 52.49. In experiment [6], the “Improving effect on skin dermatitis (severity score, total score 12)” value was 2.2. Besides, the “IL-10 expression (RT-PCR, relative to acetone+DIW = 1)” value in experiment [7] came out at 20.44. Besides, the “TSLP expression (RT-PCR, relative to acetone+DIW = 1)” value in experiment [8] is recorded as 1.311. Moreover, the “IL-33 expression (RT-PCR, relative to acetone+DIW = 1)” value in [9] came to 0.7365. The “IL-22 expression (RT-PCR, relative to acetone+DIW = 1)” value in experiment [10] is on record as 13.08. Further, the “IL-31 expression (RT-PCR, relative to acetone+DIW = 1)” value in experiment [11] came out at 1.001. The “IL-13 expression (RT-PCR, relative to acetone+DIW = 1)” value in [12] is 12.56.
